Test results from patent US9186361B2, “Compounds and compositions for the treatment of parasitic diseases” (Novartis AG, priority 2013, dated 2015).

Columns and labels:
Assay type in all cases: cell-based
[1] = system: L. donovani HU3 strain in mouse peritoneal macrophages; test: Proliferation of L. donovani in mouse peritoneal macrophages (SybrGreen, high-content imaging); details: Leishmania donovani, Peritoneal macrophage, 120 h; infected mouse peritoneal macrophages, 5 days; read-out: L. donavani Macrophage EC50
Description: The activity of a compound according to the present invention for inhibition of parasitemai can be assessed by the parasite proliferation assay. The assay measures the increase in the parasite number in the assayed plate well using a DNA intercalating dye, SYBR Green I® dye (INVITROGEN) to stain Leishmania cell nuclei. It is understood that the assays illustrate the invention without in any way limiting the scope of the invention.
L. donovani HU3 strain is propagated by infecting BALBc mice through tail vein injection with 10^7 Leishmania parasites. Infected mice are allowed to develop infection during 9-11 weeks post-infection. During this time, the parasites accumulate in the infected mouse spleens to large numbers, and the infected mice serve as the source of parasites for the in vitro measurement of compound efficacies. To assay a compound for anti-leishmanial activity, peritoneal macrophages isolated from non-infected BALBc mice are seeded into 384-well plates at density 2×10^4 macrophages per well in 25 mL of medium (RPMI1640, 10% fetal serum albumin, 10 mM HEPES, 1 mM sodium pyruvate, 1% Pen/Strep). Subsequently, the seeded plates are placed into an incubator set to maintain 37° C. temperature and atmosphere with 5% CO2. The next day, Leishmania parasites are isolated from the spleens of mice infected for 9-11 weeks and 4×10^5 isolated parasites in […] of the above media are added to each plate well. Plates are then returned into incubators and infection is allowed to proceed for 24 hours. After the infection of macrophages is completed, […] of compounds of the invention in the above medium, which also contains 5% DMSO, are added to plate wells containing infected macrophages. At the same time control compounds (miltefosine and amphotericin B) and DMSO are added to plates to serve as the positive and negative controls, respectively. After the compound addition, the plates are returned into incubator and cells infected with parasites are cultured for 5 days. At the end of cultivation, […] of 8% paraformaldehyde is added to plate wells and incubated for 15 min at room temperature. Following the incubation, the paraformaldehyde from plate wells is aspirated, and […] of PBS containing 0.2% Triton X-100 is added to wells. After 15 min incubation, the solution is aspirated from wells again, and replaced with SybrGreen Dye solution in PBS (1:125,000 dilution). Infected cells are imaged with Evotec Opera high-content microscope, and the number of parasites in well is determined by counting parasite nuclei visualized by staining with SybrGreen dye. The percentage inhibition of 50%, EC50, is calculated for each compound.
The inhibitory efficacy of the compounds of the invention against proliferation of L. donovani in mouse peritoneal macrophages is provided in Table I.

[2] = system: Trypanosoma brucei Lister 427 strain; test: Assay for proliferation of kinetoplastid parasite Trypanosoma brucei (Cell Titer Glo); details: bloodstream form, 48 hours, read-out: T. brucei EC50
Description: The proliferation is quantified by the addition of Cell Titer Glo (Promega®) a luminescent cell viability assay that measures the number of viable cells in culture based on the quantification of cellular ATP amount, which is an indicator of metabolically active cells. The following assay illustrates the invention without in any way limiting the scope of the invention. This parasite proliferation assay measures the increase in parasite growth using an assay that measures ATP activity, Cell Titer Glo®.
Trypanosoma brucei Lister 427 strain is grown in HMI-9 Trypanosome media for T. brucei bloodstream form. 30 μl of HMI-9 media is dispensed into 384 well assay plates. 200 nL of compounds of the invention (in DMSO), including anti-trypanosome controls (Pentamidine and suramin), are then transferred into the assay plates, as well as DMSO alone to serve as a negative control for inhibition. Then 25 μl of a suspension of T. brucei culture in HMI-9 media is dispensed into the assay plates. The final concentration of parasites in culture corresponds to 1.7% of 0.5 uM ATP activity with Cell Titer Glo® in HMI-9 media. The plates are placed in a 37° C. incubator for 48 hours in an atmospheric environment containing 5% CO2. 40 μl of Cell Titer Glo® is dispensed into the plates. The plates are then read for luminescence. The percentage inhibition of 50%, EC50, is calculated for each compound.

[3] = system: Trypanosoma cruzi amastigotes cultured in 3T3 fibroblast cells; test: Assay for proliferation of kinetoplastid parasite Trypanosoma cruzi (beta-galactosidase/CPRG readout); details: NIH3T3, 144 h, Tulahuen strain in 3T3 cells, 6 day incubation, read-out: T cruzi EC50
Description: Compounds of the invention can be assayed to measure their capacity to inhibit proliferation of kinetoplastid parasite Trypanosoma cruzi. The screening procedure is for identifying compounds with inhibitor activity against Trypanosoma cruzi amastigotes cultured in 3T3 fibroblast cells. The assay is done using the mammalian stage (amastigotes) of T. cruzi that replicates in the intracellular space of host cells. The host cells are initially infected with the culture-derived trypomastigotes that rapidly invade and then divide as amastigotes. The protocol uses the Tulahuen strain of T. cruzi that has been engineered to express the E. coli beta-galactosidase gene (Lac-Z) (Antimicr. Agents Chemoth. 40:2592, 1996). This allows for a colorimetric readout by using the substrate CPRG and an absorbance plate reader.
3T3 fibroblast cells are re-suspended in RPMI-1640 medium without phenol red medium supplemented with 10% FBS (heat inactivated), 100 μg/ml penicillin, and 100 μg/ml streptomycin. Forty μL of suspension (1,000 cells) is dispensed into 384-well plates and incubated overnight at 37° C. temperature and in atmosphere containing 5% CO2. The following day, 100 nL of compounds of the invention in DMSO are added to plate wells containing 3T3 cells. At the same time control compounds (benznidazole and nifurtimox) and DMSO are added to plates to serve as the positive and negative controls, respectively. After that, 10 μL of media containing 10,000 T. cruzi trypomastigotes are added to each plate well and plates are placed back into incubators. After 6 day incubation, 10 μL of reagent solution (0.6 mM CPRG, 0.6% NP-40 in PBS) is added to plates and incubated at room temperature for 2 hours. Absorbance is then measured on SpectraMax Gemini fluorimeter to determine relative number of T. cruzi cells present in each plate well. The percentage inhibition of 50%, EC50, is calculated for each compound.

[4] = system: Leishmania donovani axenic amastigote parasites; test: Assay for Leishmania proliferation in vitro (axenic amastigotes, Cell TiterGlo); details: 48 h, 2 day incubation, read-out: L. donovani amastigotes EC50
Protocol: Leishmania donovani axenic amastigote parasites are grown at 37° C., 5% CO2 in media made of RPMI 1640, 4 mM L-glutamine, 20% heat inactivated FBS, 100 units/ml of penicillin and 100 μg/ml of streptomycin, 23 μM Folic Acid, 100 μM Adenosine, 22 mM D-glucose, 25 mM MES. The pH of media is adjusted to 5.5 at 37° C. using HCl. 20 μL of media is first dispensed into 384 well plates and […] of the compounds of invention in DMSO are added to the plate wells. At the same time control compounds and DMSO are added to plates to serve as the positive and negative controls, respectively. 40 μL of parasite culture (9600 parasites) are then added to the plate wells. The plates are then placed into incubators. After 2 day incubation, 20 μL of Cell TiterGlo (Promega) is added to the plate wells. The luminescence signal of each well is measured using the Envision reader (Perkin Elmer). The percentage inhibition of 50%, EC50, is calculated for each of the compounds.

SMILES	EC50 [1]	EC50 [2]	EC50 [3]	EC50 [4]
O=C(C[C@@H]1CCNC1)Nc1cnc2nc(-c3cc(NC(=O)c4ccco4)ccc3Cl)[nH]c2c1 [Example 32, N-[4-chloro-3-(6-{2-[(3S)-pyrrolidin-3-yl]acetamido}-1H-imidazo[4,5-b]pyridin-2-yl)phenyl]furan-2-carboxamide]	> 50000 nM	7800 nM	> 20000 nM	> 25000 nM
CC(C)(C)OC(=O)NCC1(C(=O)Nc2cnc3nc(-c4cc(NC(=O)c5ccco5)ccc4Cl)[nH]c3c2)CC1 [Example 63, tert-butyl N-{[1-({2-[2-chloro-5-(furan-2-amido)phenyl]-1H-imidazo[4,5-b]pyridin-6-yl}carbamoyl)cyclopropyl]methyl}carbamate]	530 nM	44 nM	248 nM	460 nM
O=C(CCN1CCOCC1)Nc1cnc2nc(-c3cc(NC(=O)c4ccc(F)o4)ccc3Cl)[nH]c2c1 [Example 72, N-(4-chloro-3-{6-[3-(morpholin-4-yl)propanamido]-1H-imidazo[4,5-b]pyridin-2-yl}phenyl)-5-fluorofuran-2-carboxamide]	34100 nM	5360 nM	> 20000 nM	> 25000 nM
CC(C)(COC(=O)Nc1cnc2nc(-c3cc(NC(=O)c4ccco4)ccc3Cl)[nH]c2c1)NC(=O)OC(C)(C)C [Example 15, tert-butyl N-{1-[({2-[2-chloro-5-(furan-2-amido)phenyl]-1H-imidazo[4,5-b]pyridin-6-yl}carbamoyl)oxy]-2-methylpropan-2-yl}carbamate]	8700 nM	640 nM	1850 nM	5100 nM
O=C(Nc1ccc(Cl)c(-c2nc3ncc(NC(=O)C4CC4)cc3[nH]2)c1)c1ccco1 [Example 45, N-(4-chloro-3-{6-cyclopropaneamido-1H-imidazo[4,5-b]pyridin-2-yl}phenyl)-furan-2-carboxamide]	1160 nM	115 nM	2860 nM	450 nM
COCC1(C(=O)Nc2cnc3nc(-c4cc(NC(=O)c5ccco5)ccc4Cl)[nH]c3c2)CC1 [Example 42, N-[4-chloro-3-(6-{[1-(methoxymethyl)cyclopropane]amido}-1H-imidazo[4,5-b]pyridin-2-yl)phenyl]furan-2-carboxamide]	1910 nM	185 nM	1320 nM	1090 nM
O=C(Nc1ccc(Cl)c(-c2nc3ncc(NC(=O)C(O)CO)cc3[nH]2)c1)c1ccco1 (stereo not drawn) [Example 18, N-{4-chloro-3-[6-(2,3-dihydroxypropanamido)-1H-imidazo[4,5-b]pyridin-2-yl]phenyl}furan-2-carboxamide]	16900 nM	1720 nM		8900 nM
CN1CCC(C(=O)Nc2cnc3nc(-c4cc(NC(=O)c5ccco5)ccc4Cl)[nH]c3c2)CC1 [Example 36, N-{2-[2-chloro-5-(furan-2-amido)phenyl]-1H-imidazo[4,5-b]pyridin-6-yl}-1-methylpiperidine-4-carboxamide]	> 50000 nM		19000 nM	> 25000 nM
O=C(Nc1ccc(Cl)c(-c2nc3ncc(NC(=O)N4CCCC4)cc3[nH]2)c1)c1ccco1 [Example 12, N-{2-[2-chloro-5-(furan-2-amido)phenyl]-1H-imidazo[4,5-b]pyridin-6-yl}pyrrolidine-1-carboxamide]	> 26100 nM		11000 nM	2340 nM
CNS(=O)(=O)Nc1cnc2nc(-c3cc(NC(=O)c4ccco4)ccc3Cl)[nH]c2c1 [Example 52, N-(4-chloro-3-{6-[(methylsulfamoyl)amino]-1H-imidazo[4,5-b]pyridin-2-yl}phenyl)furan-2-carboxamide]	28900 nM		> 20000 nM	> 25000 nM
CCOC(=O)Nc1cnc2nc(-c3cc(NC(=O)c4ccco4)ccc3Cl)[nH]c2c1 [Example 6, ethyl N-{2-[2-chloro-5-(furan-2-amido)phenyl]-1H-imidazo[4,5-b]pyridin-6-yl}carbamate]	1420 nM	34 nM		580 nM
COC(=O)Nc1cnc2nc(-c3cc(NC(=O)c4ccco4)ccc3Cl)[nH]c2c1 [Example 9, methyl N-{2-[2-chloro-5-(furan-2-amido)phenyl]-1H-imidazo[4,5-b]pyridin-6-yl}carbamate]	2480 nM	143 nM		950 nM
CC(C)(C)OC(=O)NCCOC(=O)Nc1cnc2nc(-c3cc(NC(=O)c4ccco4)ccc3Cl)[nH]c2c1 [Example 16, tert-butyl N-{2-[({2-[2-chloro-5-(furan-2-amido)phenyl]-1H-imidazo[4,5-b]pyridin-6-yl}carbamoyl)oxy]ethyl}carbamate]	10100 nM		4000 nM	5700 nM
O=C(Nc1ccc(Cl)c(-c2nc3ncc(NC(=O)C4CNC4)cc3[nH]2)c1)c1ccco1 [Example 62, N-{2-[2-chloro-5-(furan-2-amido)phenyl]-1H-imidazo[4,5-b]pyridin-6-yl}azetidine-3-carboxamide]	> 28800 nM		> 20000 nM	> 25000 nM
CC(C)(CO)C(=O)Nc1cnc2nc(-c3cc(NC(=O)c4ccco4)ccc3Cl)[nH]c2c1 [Example 22, N-{4-chloro-3-[6-(3-hydroxy-2,2-dimethylpropanamido)-1H-imidazo[4,5-b]pyridin-2-yl]phenyl}furan-2-carboxamide]	> 50000 nM	760 nM		20700 nM
